# How the values were obtained:
# [1] = target: Matrix metalloproteinase-9 (Homo sapiens, UniProt P14780); test: Inhibition of Matrix metalloprotease-9
# [2] = target: T1, Matrilysin (Homo sapiens, UniProt P09237); test: Inhibition of Matrix metalloprotease-7
# T1 sequence (P09237 whole entry): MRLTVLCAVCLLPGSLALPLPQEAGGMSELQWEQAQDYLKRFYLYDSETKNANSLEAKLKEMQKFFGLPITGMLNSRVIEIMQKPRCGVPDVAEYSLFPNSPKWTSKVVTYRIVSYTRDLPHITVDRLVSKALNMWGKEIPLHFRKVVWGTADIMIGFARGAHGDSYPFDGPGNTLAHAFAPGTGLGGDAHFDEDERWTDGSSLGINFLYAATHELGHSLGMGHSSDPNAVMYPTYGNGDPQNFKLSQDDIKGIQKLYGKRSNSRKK
# [3] = target: T2, Interstitial collagenase (Homo sapiens, UniProt P03956); test: Inhibition of Matrix metalloprotease-1
# T2 sequence (P03956 whole entry): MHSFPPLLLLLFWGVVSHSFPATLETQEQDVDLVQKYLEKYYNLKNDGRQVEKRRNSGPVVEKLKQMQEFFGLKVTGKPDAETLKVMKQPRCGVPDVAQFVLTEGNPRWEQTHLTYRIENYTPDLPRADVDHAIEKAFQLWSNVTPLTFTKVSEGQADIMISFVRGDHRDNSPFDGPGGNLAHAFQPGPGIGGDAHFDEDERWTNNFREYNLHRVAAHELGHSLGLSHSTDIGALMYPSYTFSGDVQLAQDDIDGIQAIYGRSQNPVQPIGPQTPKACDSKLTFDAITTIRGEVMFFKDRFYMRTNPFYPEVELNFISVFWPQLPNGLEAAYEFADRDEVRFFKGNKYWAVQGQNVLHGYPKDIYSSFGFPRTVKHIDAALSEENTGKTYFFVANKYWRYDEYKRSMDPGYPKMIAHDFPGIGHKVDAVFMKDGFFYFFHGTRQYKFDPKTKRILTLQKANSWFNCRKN
# [4] = target: Stromelysin-1 (Homo sapiens, UniProt P08254); test: Inhibition of Matrix metalloprotease-3
# Sequence of Stromelysin-1 (P08254 whole entry): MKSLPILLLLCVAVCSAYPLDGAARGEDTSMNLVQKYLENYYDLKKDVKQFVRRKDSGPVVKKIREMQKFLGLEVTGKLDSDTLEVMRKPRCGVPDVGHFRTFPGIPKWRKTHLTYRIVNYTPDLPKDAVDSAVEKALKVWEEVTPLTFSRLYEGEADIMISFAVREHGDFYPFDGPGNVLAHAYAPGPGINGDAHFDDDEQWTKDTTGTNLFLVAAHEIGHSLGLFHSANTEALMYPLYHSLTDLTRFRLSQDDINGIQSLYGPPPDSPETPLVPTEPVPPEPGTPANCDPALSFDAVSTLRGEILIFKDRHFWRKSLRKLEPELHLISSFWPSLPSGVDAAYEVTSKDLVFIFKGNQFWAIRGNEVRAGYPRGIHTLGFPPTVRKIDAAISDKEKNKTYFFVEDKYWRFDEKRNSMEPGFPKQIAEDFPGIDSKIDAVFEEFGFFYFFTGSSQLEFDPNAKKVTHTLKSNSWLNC
# Sequence of Matrix metalloproteinase-9 (P14780 whole entry): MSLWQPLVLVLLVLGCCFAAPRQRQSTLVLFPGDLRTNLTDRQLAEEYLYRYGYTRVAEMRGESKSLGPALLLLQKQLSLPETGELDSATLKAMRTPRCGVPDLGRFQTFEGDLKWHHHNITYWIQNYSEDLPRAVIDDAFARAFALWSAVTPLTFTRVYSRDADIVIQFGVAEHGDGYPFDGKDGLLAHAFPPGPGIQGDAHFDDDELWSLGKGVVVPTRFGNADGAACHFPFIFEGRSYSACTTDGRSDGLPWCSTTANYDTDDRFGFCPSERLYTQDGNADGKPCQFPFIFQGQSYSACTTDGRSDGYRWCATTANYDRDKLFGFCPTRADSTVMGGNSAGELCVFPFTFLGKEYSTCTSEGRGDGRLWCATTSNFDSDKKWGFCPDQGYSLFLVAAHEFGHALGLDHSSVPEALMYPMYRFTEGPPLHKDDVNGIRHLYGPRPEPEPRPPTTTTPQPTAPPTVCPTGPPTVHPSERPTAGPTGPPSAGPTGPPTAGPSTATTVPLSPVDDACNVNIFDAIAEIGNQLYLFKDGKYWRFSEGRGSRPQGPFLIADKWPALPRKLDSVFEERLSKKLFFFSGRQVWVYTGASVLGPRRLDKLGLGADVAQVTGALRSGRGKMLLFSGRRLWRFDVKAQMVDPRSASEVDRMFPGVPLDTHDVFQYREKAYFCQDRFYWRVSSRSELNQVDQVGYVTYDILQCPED
SMILES,IC50 [1],IC50 [2],IC50 [3],IC50 [4]
COc1ccc(S(=O)(=O)N2CC(C)(C)CN(S(=O)(=O)c3ccc(OC)cc3)C2C(=O)NO)cc1,2.7 nM,30 nM,24 nM,
COc1ccc(S(=O)(=O)N2CC(O)CN(S(=O)(=O)c3ccc(OC)cc3)C2C(=O)NO)cc1 (stereo not drawn),4.7 nM,366 nM,51 nM,41 nM
COc1ccc(S(=O)(=O)N2CC3(CN(S(=O)(=O)c4ccc(OC)cc4)C2C(=O)NO)SCCCS3)cc1,15.6 nM,123 nM,79 nM,19.5 nM
COc1ccc(S(=O)(=O)N2CCCCN(S(=O)(=O)c3ccc(OC)cc3)C2C(=O)NO)cc1,,,827 nM,1290 nM
COc1ccc(S(=O)(=O)N2CCN(S(=O)(=O)c3ccc(OC)cc3)C2C(=O)NO)cc1,,,4650 nM,1060 nM
COc1ccc(S(=O)(=O)N2CCCN(S(=O)(=O)c3ccc(OC)cc3)C2C(=O)NO)cc1,3.9 nM,460 nM,79 nM,33 nM
CCCCOc1ccc(S(=O)(=O)N2CC(C)(C)CN(S(=O)(=O)c3ccc(OCCCC)cc3)C2C(=O)NO)cc1,101 nM,716 nM,,22 nM
COc1ccc(S(=O)(=O)N(Cc2cccnc2)[C@@H](C(=O)NO)C(C)C)cc1 [CGS-27023A],,106 nM,,
